Measurements published in US10723764B2, “Anti-microbial peptides and methods of use thereof” (priority 2011, dated 2020).
Values after ≈ are worked out from the molar mass of the structure shown. Where two headings read alike, the source gives them in different places. Where a SMILES comes first, the peptide text is derived from it. Where no end group is shown, it is not given here. [ ]: non-standard residue; d: D form. Phe(4-CF3) = N[C@@H](Cc1ccc(C(F)(F)F)cc1)C(=O)O; Bip = N[C@@H](Cc1ccc(-c2ccccc2)cc1)C(=O)O; 2Nal = N[C@@H](Cc1ccc2ccccc2c1)C(=O)O

How the values were obtained:
Escherichia coli K12 = conditions: for MICs (μM) EC: E. coli K12, Table 5 screen
[1] = system: methicillin-resistant Staphylococcus aureus USA300 LAC; conditions: for MICs (μM) SA: S. aureus USA300, Table 5 screen; for MIC (μM) SA: S. aureus USA300 LAC, Table 10
Procedure: This was done by modifying the standard microdilution antimicrobial assays (Wang, G. (2008) J. Biol. Chem., 283:32637-32643). Specifically, the bacterial wells with a high peptide concentration (e.g. 100 μM) are duplicated (e.g., two for antimicrobial assays and two for protease stability assays). As an illustration, chymotrypsin was applied to the duplicated wells at a peptide:protease molar ratio of 25:1.

human erythrocytes = conditions: for HL50 (μM), peptide concentration that causes 50% lysis of human erythrocytes: Table 10
Procedure: (§1) Peptide hemolysis was assayed using an established protocol (Malmsten et al. (2011) PLoS One 6:e16400). In brief, fresh blood, obtained from the UNMC Blood Bank, was washed three times with PBS buffer and made into a 5% solution. To 90 μL of this solution, 10 μL of a peptide solution was added and incubated at 37° C. for one hour. After centrifugation at 13,000 rpm, aliquots of the supernatant were transferred to a fresh 96 well microplate. The absorbance of the solutions was measured at 545 nm to detect the amount of hemoglobin released. The percent lysis was calculated by assuming 100% release when treated with 2% Triton X-100 and no lysis (0%) when treated with PBS buffer. HL50 was the peptide concentration that caused 50% lysis of human erythrocytes. The cell selectivity (CS) indexes were calculated as the ratio of HL50 to the MIC of the peptide against S. aureus USA300.
(§2) The hemolytic effects of the six peptides were also compared on human red blood cells (hRBC) using an established protocol (Malmsten et al. (2011) PLoS One 6:e16400). […] A high TI indicates good cell selectivity.
(§3) Peptide hemolysis was assayed using an established protocol (Menousek et al. (2012) Int. J. Antimicrob. Agents 39:402-406; Malmsten et al. (2011) PLoS One 6:e16400). Briefly, blood cells were washed three times with phosphate-buffered saline (PBS) and were diluted to a 5% solution. Following peptide treatment, incubation at 37° C. for 1 hour and centrifugation at 13,000 rpm, aliquots of the supernatant were transferred to a fresh 96-well microplate. To assess peptide cytotoxicity, the amount of hemoglobin released was measured at 545 nm. Percent lysis was calculated by assuming 100% release when human blood cells were treated with 2% Triton X-100 and 0% release when they were incubated with PBS buffer.

A. baumannii B2367-12 = type: cell-based, Acinetobacter baumanii
Procedure: (§4) The antibacterial activities of the peptides were determined using the standard broth microdilution method (Mishra et al. (2012) J. Am. Chem. Soc., 134:12426-12429; Wang et al. (2005) Biol. Chem., 280:5803-5811). Briefly, the bacterial culture was treated with a series of peptide solutions, each with two-fold dilution. After overnight incubation at 37° C., the microplate was read on a ChroMate® 4300 Microplate Reader at 630 nm (GMI, Ramsey, Minn.).

E. faecium ATCC51559 = type: cell-based, Enterococcus faecium
Procedure: as §4

[2] = system: Pseudomonas aeruginosa PAO1; type: cell-based
Procedure: The bacterial strains used in the study are Bacillus subtilis 168, methicillin-resistant Staphylococcus aureus USA300 LAC (Gram-positive), Escherichia coli K12, and Pseudomonas aeruginosa PAO1 (Gram negative). The antibacterial activities of the peptides were determined using the standard broth microdilution method (Wang et al. (2005) J. Biol. Chem., 280:5803-5811). In brief, the bacterial culture (90 μL) was treated with a series of peptide solutions (10 μL), each with two-fold dilution. After overnight incubation at 37° C., the microplate was read on a ChroMate® 4300 Microplate Reader at 630 nm (GMI, Ramsey, Minn.).
For the initial screen, antimicrobial activities of these peptides against S. aureus and E. coli were evaluated using the standard broth microdilution protocol (Wang, G. (2008) J. Biol. Chem., 283:32637-43). […] Subsequently, the in vitro activity of these six peptides was evaluated against Bacillus subtilis and Pseudomonas aeruginosa (Table 6). […] While maculatin 1.3 is active against two Gram-positive but not two Gram-negative bacterial strains, DASamP1 is species-specific since it active only against S. aureus. The finding that ascaphin-8, […], and piscidin 1 are wide-spectrum AMPs agrees with the literature (Apponyi et al. (2004) Peptides 25:1035-1054; Conlon et al. (2004) Biochem. Biophys. Res. Commun., 320:170-175; Silphaduang et al. (2001) Nature 414:268-269; Souza et al. (2005) J. Immunol., 186:6585-6596). For lycotoxin I, it was previously found to active against Gram-negative E. coli and yeast (Yan et al. (1998) J. Biol. Chem., 273:2059-2066).
as §4

E. cloacae B2366-12 = type: cell-based
Procedure: as §4

[3] = human, hemolysis, at 160 μM, human red blood cells
Procedure: as §1, §2, §3

Gram-positive bacteria = system: Gram-positive bacteria; set-up: key: Y, Yes; N, No; conditions: data from the APD; cited from earlier work
Gram-negative bacteria = system: Gram-negative bacteria; set-up: key: Y, Yes; N, No; conditions: data from the APD; cited from earlier work

| Molecule | MICs (μM) EC (Escherichia coli K12) [µM] | MICs (μM) SA [1] [µM] | HL50 (μM), peptide concentration that causes 50% lysis of human erythrocytes (human erythrocytes) [µM] | MIC (μM) AB (A. baumannii B2367-12) [µM] | MIC (μM) PA [2] [µM] | MIC (μM) SA [1] [µM] | other results |
| --- | --- | --- | --- | --- | --- | --- | --- |
| GKPRPYSPRPTSHPRPIRV [Drosocin, reference compound] | >100 | >100 | – | – | – | – | – |
| GFLSILKKVLPKVMAHMK-NH2 [Melectin, reference compound] | 12.5 to 25 | 12.5 to 25 | – | – | – | – | – |
| RQRVEELSKFSKKGAAARRRK [Misgurin, reference compound] | >84 | >84 | – | – | – | – | – |
| HVDKKVADKVLLLKQLRIMRLLTRL [Spinigerin, reference compound] | >81 | >81 | – | – | – | – | – |
| CC(C)C[C@H](NC(=O)[C@H](CC(N)=O)NC(=O)[C@H](CCCNC(=N)N)NC(=O)[C@@H](CC(C)C)NC(=O)[C@H](Cc1ccc2ccccc2c1)NC(=O)[C@H](CC(=O)O)NC(=O)[C@H](CCCCN)NC(=O)[C@@H](CC(C)C)NC(=O)[C@H](CCCNC(=N)N)NC(=O)[C@H](CCC(N)=O)NC(=O)[C@@H](NC(=O)[C@@H](CC(C)C)NC(=O)[C@H](CCCNC(=N)N)NC(=O)[C@H](CCCCN)NC(=O)[C@H](Cc1ccccc1)NC(=O)CN)C(C)C)C(=O)N[C@H](C(N)=O)C(C)C [17F-Naph, GX1KRLVQRLKDX2LRNLV] (H-GFKR[dL]VQR[dL]KD[2Nal][dL]RNLV-NH2) | – | – | >900 | 3.1 (≈ 6.67 µg/mL) | 12.5 (≈ 26.9 µg/mL) | 25 (≈ 53.8 µg/mL) | MIC (μM) EF (E. faecium ATCC51559; ATCC51559): 3.1 µM (≈ 6.67 µg/mL); MIC (μM) EC (E. cloacae B2366-12; E. cloacae B2366-12): 12.5 µM (≈ 26.9 µg/mL) |
| CC(C)C[C@H](NC(=O)[C@H](CC(N)=O)NC(=O)[C@H](CCCNC(=N)N)NC(=O)[C@@H](CC(C)C)NC(=O)[C@H](Cc1ccccc1)NC(=O)[C@H](CC(=O)O)NC(=O)[C@H](CCCCN)NC(=O)[C@@H](CC(C)C)NC(=O)[C@H](CCCNC(=N)N)NC(=O)[C@H](CCC(N)=O)NC(=O)[C@@H](NC(=O)[C@@H](CC(C)C)NC(=O)[C@H](CCCNC(=N)N)NC(=O)[C@H](CCCCN)NC(=O)[C@H](Cc1ccc(-c2ccccc2)cc1)NC(=O)CN)C(C)C)C(=O)N[C@H](C(N)=O)C(C)C [C128A, GX1KRLVQRLKDX2LRNLV-amide] (H-G[Bip]KR[dL]VQR[dL]KDF[dL]RNLV-NH2) | – | – | >900 | 3.1 (≈ 6.75 µg/mL) | 12.5 (≈ 27.2 µg/mL) | 12.5 (≈ 27.2 µg/mL) | hemolysis (human erythrocytes; human, 160 µM): <5%; hemolysis at 160 µM [3]: 3 to 5%; MIC (μM) EF (E. faecium ATCC51559; E. faecium ATCC51559): 12.5 µM (≈ 27.2 µg/mL); MIC (μM) EC (E. cloacae B2366-12; E. cloacae B2366-12): 12.5 µM (≈ 27.2 µg/mL); E. coli K12 MIC (Escherichia coli K12; Table 8): 5 µM; S. aureus USA 300 MIC ([1]; Table 8): 40 µM |
| RPKHPIKHQGLPQEVLNENLLRF [Isracidin, reference compound] | >100 | >100 | – | – | – | – | – |
| CC(C)C[C@H](NC(=O)[C@H](CC(N)=O)NC(=O)[C@H](CCCNC(=N)N)NC(=O)[C@@H](CC(C)C)NC(=O)[C@H](Cc1ccc(C(F)(F)F)cc1)NC(=O)[C@H](CC(=O)O)NC(=O)[C@H](CCCCN)NC(=O)[C@@H](CC(C)C)NC(=O)[C@H](CCCNC(=N)N)NC(=O)[C@H](CCC(N)=O)NC(=O)[C@@H](NC(=O)[C@@H](CC(C)C)NC(=O)[C@H](CCCNC(=N)N)NC(=O)[C@H](CCCCN)NC(=O)[C@H](Cc1ccc2ccccc2c1)NC(=O)CN)C(C)C)C(=O)N[C@H](C(N)=O)C(C)C [17Naph-mF, GX1KRLVQRLKDX2LRNLV] (H-G[2Nal]KR[dL]VQR[dL]KD[Phe(4-CF3)][dL]RNLV-NH2) | – | – | 950 | 3.1 (≈ 6.88 µg/mL) | 6.2 to 12.5 | 6.2 (≈ 13.8 µg/mL) | MIC (μM) EF (E. faecium ATCC51559; ATCC51559): 3.1 µM (≈ 6.88 µg/mL); MIC (μM) EC (E. cloacae B2366-12; E. cloacae B2366-12): 6.2 to 12.5 µM |
| GNNRPVYIPQPRPPHPRI [Apidaecin IA, reference compound] | >100 | >100 | – | – | – | – | – |
| CC(C)C[C@H](NC(=O)[C@H](CC(N)=O)NC(=O)[C@H](CCCNC(=N)N)NC(=O)[C@@H](CC(C)C)NC(=O)[C@H](Cc1ccc2ccccc2c1)NC(=O)[C@H](CC(=O)O)NC(=O)[C@H](CCCCN)NC(=O)[C@@H](CC(C)C)NC(=O)[C@H](CCCNC(=N)N)NC(=O)[C@H](CCC(N)=O)NC(=O)[C@@H](NC(=O)[C@@H](CC(C)C)NC(=O)[C@H](CCCNC(=N)N)NC(=O)[C@H](CCCCN)NC(=O)[C@H](Cc1ccc(C(F)(F)F)cc1)NC(=O)CN)C(C)C)C(=O)N[C@H](C(N)=O)C(C)C [17mF-Naph, GX1KRLVQRLKDX2LRNLV] (H-G[Phe(4-CF3)]KR[dL]VQR[dL]KD[2Nal][dL]RNLV-NH2) | – | – | 500 | 3.1 (≈ 6.88 µg/mL) | 6.2 to 12.5 | 6.2 (≈ 13.8 µg/mL) | MIC (μM) EF (E. faecium ATCC51559; ATCC51559): 3.1 µM (≈ 6.88 µg/mL); MIC (μM) EC (E. cloacae B2366-12; B2366-12): 6.2 µM (≈ 13.8 µg/mL) |
| Temporin A: temporin, APD ID 94, SEQ ID NO: 14 (FLPLIGRVLSGIL; listed as Rana temporaria) | – | – | – | – | – | – | Activity G+ (activity against Gram-positive bacteria) (Gram-positive bacteria): Y; Activity G− (activity against Gram-negative bacteria) (Gram-negative bacteria): N |
| Temporin L: temporin, APD ID 99, SEQ ID NO: 11 (FVQWFSKFLGRIL; listed as Rana temporaria) | – | – | – | – | – | – | Activity G+ (activity against Gram-positive bacteria) (Gram-positive bacteria): Y/Y; Activity G− (activity against Gram-negative bacteria) (Gram-negative bacteria): Y/Y |
| Temporin F: temporin, APD ID 98, SEQ ID NO: 15 (FLPLIGKVLSGIL; listed as Rana temporaria) | – | – | – | – | – | – | Activity G+ (activity against Gram-positive bacteria) (Gram-positive bacteria): Y/Y; Activity G− (activity against Gram-negative bacteria) (Gram-negative bacteria): Y/Y |
